Measurements from patent publication US20250059139A1, “COMPOUNDS FOR TREATMENT OF CANCER” (THE JOHNS HOPKINS UNIVERSITY, priority 2021, published 2025).
pIC50: −log10 of the molar value. Where “and” joins values, the source holds several entries; their conditions need not be identical. Identical values can stand only once.

What was measured:
solid malignances = settings: cited from earlier work
mCRPC patients = settings: cited from earlier work
[1] = tested on: CWR-22Rv1 parental wild type cells; experiment: In vivo growth of CWR-22Rv1 parental wild type xenografts; design: species or system human; settings: daily oral 10 mg/kg/d
Source text: Prostate Cancer Models. The source, history, and characteristics of the human prostate cancer cell lines and PDXs used, as well as cell culture conditions for their in vitro maintenance and the in vivo protocol for xenograft growth in triple immune-deficient NSG (i.e. NOD.Cg-PrkdcScidIl2rgtmlWji/Szj), adult (>8 week old) male mice obtained from the Sidney Kimmel Comprehensive Cancer Center (SKCCC) Animal Core Facility are described previously (Isaacs 2013; Brennen et al. JCI Insight. 2021, 6(8):e146827; Zhu et al. Oncogene 2020, 39(45): 6935-6949). […] In vitro growth curves were determined as described (Isaacs 2013). In vivo growth response to oral daily TasQ (10 mg/kg/d) of TRAMP-C2 mouse prostate cancers was evaluated in C57BL/6J syngeneic wild type vs. NOX-2 vs. iNOS null male mice obtained from Jackson Laboratory (Bar Harbor, ME). Growth response to oral daily TasQ (10 mg/kg/d) of TRAMP-C2 and B6CaP mouse prostate cancers was also evaluated in S100A9 null C57BL′6J male mice obtained from Dmitry Gabrilovich (Wistar Institute). […] In vitro growth curves were determined as described (Isaacs 2013). Growth response to daily oral TasQ vs. ESATA-20 (both at 10 mg/kg/d) of Myc-CaP-CR mouse prostate cancer was evaluated in syngeneic FVB/NJ castrate male mice from Jackson Laboratory. […]

LNCaP cells = experiment: In vitro growth of LNCaP cells; assay type: cell-based, human; settings: for LNCaP growth when combined with 3 nM docetaxel: 10 μM compound + 3 nM docetaxel
Source text: Prostate Cancer Models. The source, history, and characteristics of the human prostate cancer cell lines and PDXs used, as well as cell culture conditions for their in vitro maintenance and the in vivo protocol for xenograft growth in triple immune-deficient NSG (i.e. NOD.Cg-PrkdcScidIl2rgtmlWji/Szj), adult (>8 week old) male mice obtained from the Sidney Kimmel Comprehensive Cancer Center (SKCCC) Animal Core Facility are described previously (Isaacs 2013; Brennen et al. JCI Insight. 2021, 6(8):e146827; Zhu et al. Oncogene 2020, 39(45): 6935-6949). Similar information concerning the TRAMP-C2 and B6CaP mouse prostate cancers originating in a C57BL/6J male mice are described previously (Foster et al. Cancer Res. 1997, 57: 3325-3330; Simons et al. Oncotarget. 2019, 10(64):6845-6854). In vitro growth curves were determined as described (Isaacs 2013). In vivo growth response to oral daily TasQ (10 mg/kg/d) of TRAMP-C2 mouse prostate cancers was evaluated in C57BL/6J syngeneic wild type vs. NOX-2 vs. iNOS null male mice obtained from Jackson Laboratory (Bar Harbor, ME). Growth response to oral daily TasQ (10 mg/kg/d) of TRAMP-C2 and B6CaP mouse prostate cancers was also evaluated in S100A9 null C57BL′6J male mice obtained from Dmitry Gabrilovich (Wistar Institute). All lines were mycoplasma negative using the MycoSensor PCR Assay kit (Agilent Technologies) and genetically authenticated within the last 6 months using short tandem repeat profiling conducted by the Johns Hopkins Genetic Resource Core Facility. In vitro growth curves were determined as described (Isaacs 2013). Growth response to daily oral TasQ vs. ESATA-20 (both at 10 mg/kg/d) of Myc-CaP-CR mouse prostate cancer was evaluated in syngeneic FVB/NJ castrate male mice from Jackson Laboratory. Animal studies were conducted according to animal protocols approved by Johns Hopkins Animal Care and Use Committee. Tumor volume measurements were as described previously (id.). In vivo experiments were repeated multiple independent times for each model used with 3-5 mice per treatment grouping.
Similarly, under such optimal conditions, knocking down HDAC4 expression by 50% with shRNA only decreases the growth of LNCaP cells by <25%, which is equivalent to the inhibition by TasQ at 10 μM (FIG. 22). […] In contrast to normoxic in vitro conditions, cancers outgrow their blood supply in vivo, producing a TME that is hypoxic, nutrient-limited, and acidic (low pH). For example, when prostate cancer xenografts growing subcutaneously reach a size of ˜0.2-0.3 cc, the TME is already hypoxic with a pO2 of 3.6+/−1.5 mmHg compared to 37.5+/−8.6 mmHg in normal tissue (Dalrymple et al. Prostate 72, 638-648 (2012)). […]

HIF-1α protein in tumors = settings: daily oral 10 mg/kg/d; cited from earlier work
[2] = tested on: human prostate cancer cell lines; settings: optimal normoxic, nutrient and pH culture conditions; previous studies; read-out: IC50 in vitro growth of human prostate cancer cell lines; cited from earlier work
thymus = experiment: AHR agonist induced thymus regression in FVB male mice; assay type: in vivo, mouse; settings: mouse, in vivo, po, 30 mg/kg/day
Procedure: To evaluate AHR agonist induced thymus regression, groups of five 4-week old FVB male mice from Jackson Laboratory were treated with either vehicle, Linomide, TasQ, or its analogs daily by orally gavage for 2 weeks and then the thymus removed and weighted.
Oral Drug treatment. TasQ at the indicated dose was initially dissolved with equal molar 1 N sodium hydroxide. This solution was diluted with sterile water and the mixture stirred for 1 hr. The pH was then adjusted with 1 N HCl to 8.9 and 200 μL given daily via oral gavage.
This means that in the clinical setting, dose-escalation above 1 mg/d of TasQ as needed to reach this >2 μM blood level for optimal anti-cancer efficacy will also enhance unwanted off-target AHR induction. Therefore, a medicinal chemical approach was undertaken to identify third generation quinoline-3-carboxamide analogs with increased HDAC4 inhibition, but with reduced AHR agonism. The approach taken is based upon the earlier SPR analysis documenting that TasQ linked to the surface chip via its aniline-N is a potent binder of HDAC4. Thus, a series of quinoline-3-carboxamide analogs were synthesized focusing upon adduct changes at the aniline-N. These analogs were synthesized as described in Example 1, and were initially screened for their AHR agonist activity using the in vitro human cell-based ARE-driven luciferase reporter gene assay (Table 3).

SMILES	fold increase in anti-tumor efficacy compared to Linomide (solid malignances; in vivo)	fold enhanced potency in antiangiogenic and anti-metastatic ability (solid malignances; preclinical studies, vs. first-generation Linomide)	reduction of the risk of radiographic progression or death vs. placebo (mCRPC patients; Phase III, oral 1 mg/day, mCRPC patients on ADT)	overall survival (mCRPC patients; Phase III, oral 1 mg/day)	Cmax (mCRPC patients; human, in vivo, 1 mg)	maximum tolerated dose (MTD) in humans (mCRPC patients; human, in vivo)	growth inhibition of wild type xenografts [1]	LNCaP growth when combined with 3 nM docetaxel (LNCaP cells)	inhibition at 10 µM (LNCaP cells; Homo sapiens, LNCaP, 10 μM, normoxic)	lowering of HIF-1α protein in tumors (HIF-1α protein in tumors)	pIC50 [2]	induction of thymus regression (thymus)	pIC50 (LNCaP cells; Homo sapiens, LNCaP line)
COc1cccc2c1c(O)c(C(=O)N(C)c1ccc(C(F)(F)F)cc1)c(=O)n2C [TasQ, Tasquinimod]	> 25 fold	30-60 fold	36%	not enhanced	~500 nM	1 mg	> 80%	does not occur	< 25%	> 50%	< 4.30 and ~4.30		
COc1cccc2c1c(O)c(C(=O)N(c1ccc(C(F)(F)F)cc1)C1CCCCC1)c(=O)n2C [ESATA-20]								completely inhibited				lack of induction	< 5.00
